According to ChEMBL document CHEMBL5584337, “Structure-Based Drug Design of 2-Amino-[1,1'-biphenyl]-3-carboxamide Derivatives as Selective PKMYT1 Inhibitors for the Treatment of CCNE1-Amplified Breast Cancer” (J Med Chem, 2024):
pEC50, pIC50: −log10 of the molar value. Values belong to the compound of their own block, whether it stands above or below them. Calls of active or inactive are those of the source. The rule behind the calls is not given here.

Assays:
[1] = system: HCC1569; experiment: Antiproliferative activity against human HCC1569 cells incubated for 48 to 96 hrs by CCK-8 assay; assay type: functional, cell-based
[2] = system: ZR-75-1; experiment: Antiproliferative activity against human ZR-75-1 cells incubated for 48 to 96 hrs by CCK-8 assay; assay type: functional, cell-based
[3] = biological target: Membrane-associated tyrosine- and threonine-specific cdc2-inhibitory kinase (Homo sapiens, UniProt Q99640); experiment: Inhibition of recombinant human GST-tagged PKMYT1 (75 to 362 residues) expressed in insect cells using GTDEGIYDVPLLG as substrate preincubated for 15 mins followed by substrate and ATP addition and measured after 1 hr by ADP-Glo kinase assay; set-up: species or system Insect cell
[4] = biological target: Wee1-like protein kinase (Homo sapiens, UniProt P30291); experiment: Inhibition of recombinant full-length human GST-tagged Wee1 expressed in insect cells using KIGEGTYGVVYKG as substrate preincubated for 15 mins followed by substrate and ATP addition and measured after 1 hr by ADP-Glo kinase assay; set-up: species or system Insect cell
[5] = biological target: Activated CDC42 kinase 1 (Homo sapiens, UniProt Q07912); experiment: Inhibition of ACK1 (unknown origin)
[6] = biological target: Tyrosine-protein kinase ABL2 (Homo sapiens, UniProt P42684); experiment: Inhibition of Arg (unknown origin)
[7] = biological target: Tyrosine-protein kinase Blk (Homo sapiens, UniProt P51451); experiment: Inhibition of BLK (unknown origin)
[8] = biological target: Protein-tyrosine kinase 6 (Homo sapiens, UniProt Q13882); experiment: Inhibition of BRK (unknown origin)
[9] = biological target: Proto-oncogene tyrosine-protein kinase Src (Homo sapiens, UniProt P12931); experiment: Inhibition of cSRC (unknown origin)
[10] = biological target: Epithelial discoidin domain-containing receptor 1 (Homo sapiens, UniProt Q08345); experiment: Inhibition of DDR1 (unknown origin)
[11] = biological target: Ephrin type-A receptor 1 (Homo sapiens, UniProt P21709); experiment: Inhibition of EphA1 (unknown origin)
[12] = biological target: Ephrin type-B receptor 2 (Homo sapiens, UniProt P29323); experiment: Inhibition of EphB2 (unknown origin)
[13] = biological target: Ephrin type-B receptor 1 (Homo sapiens, UniProt P54762); experiment: Inhibition of EphB1 (unknown origin)
[14] = biological target: Ephrin type-B receptor 4 (Homo sapiens, UniProt P54760); experiment: Inhibition of EphB4 (unknown origin)
[15] = biological target: Tyrosine-protein kinase Fgr (Homo sapiens, UniProt P09769); experiment: Inhibition of Fgr (unknown origin)
[16] = biological target: Tyrosine-protein kinase HCK (Homo sapiens, UniProt P08631); experiment: Inhibition of HCK (unknown origin)
[17] = biological target: Tyrosine-protein kinase Lck (Homo sapiens, UniProt P06239); experiment: Inhibition of LCK (unknown origin)
[18] = biological target: Tyrosine-protein kinase Lyn (Homo sapiens, UniProt P07948); experiment: Inhibition of Lyn (unknown origin)
[19] = biological target: Tyrosine-protein kinase Yes (Homo sapiens, UniProt P07947); experiment: Inhibition of YES (unknown origin)
[20] = biological target: Cyclin-dependent kinase 1 (Homo sapiens) (UniProt P06493); experiment: Inhibition of CDK1 phosphorylation at Thr14 in human HCC1569 cells after 4 hrs by Western blotting analysis; assay type: cell-based; conditions: dose 0.1-2 µM
[21] = biological target: Cyclin-dependent kinase 1 (Homo sapiens) (UniProt P06493); experiment: Inhibition of CDK1 phosphorylation at Thr14 in human HCC1569 cells at 2 uM after 8 to 12 hrs by Western blotting analysis; assay type: cell-based; conditions: time 8-12 hrs
[22] = biological target: Cyclin-dependent kinase 1 (Homo sapiens) (UniProt P06493); experiment: Inhibition of CDK1 phosphorylation at […] in human HCC1569 cells at 2 uM after 0.5 to 12 hrs by Western blotting analysis; assay type: cell-based; conditions: time 0.5-12 hrs
[23] = biological target: Cyclin-dependent kinase 2 (Homo sapiens) (UniProt P24941); experiment: Inhibition of CDK2 phosphorylation at Tyr15 in human HCC1569 cells at 0.1 to 2 uM after 4 hrs by Western blotting analysis; assay type: cell-based; conditions: dose 0.1-2 µM
[24] = system: HCC1569; experiment: Inhibition of colony formation in CCNE1-amplified human HCC1569 cells incubated for 14 days by crystal violet staining based microplate reader assay; assay type: functional, cell-based; conditions: HCC1569, 336 h
[25] = system: ZR-75-1; experiment: Inhibition of colony formation in human ZR-75-1 cells incubated for 14 days by crystal violet staining based microplate reader assay; assay type: functional, cell-based; conditions: ZR-75-1, 336 h
[26] = system: HCC1569; experiment: Induction of DNA damage in human HCC1569 cells assessed as upregulation of gammaH2AX level after 4 hrs by Western blotting analysis; assay type: functional, cell-based; conditions: dose 0.1-2 µM
[27] = system: HCC1569; experiment: Induction of DNA damage in human HCC1569 cells assessed as upregulation of gammaH2AX level at 2 uM by Western blotting analysis; assay type: functional, cell-based; conditions: time 0.5-12 hrs, TDE = time-dependent effect
[28] = system: HCC1569; experiment: Synergistic cytotoxicity against human HCC1569 cells after 48 to 96 hrs; assay type: functional, cell-based; conditions: time 48-96 hrs
[29] = system: HCC1569; experiment: Induction of DNA damage in human HCC1569 cells assessed as upregulation of gammaH2AX level at 62.5 to 500 nM after 48 hrs in presence of gemcitabine by Western blotting analysis; assay type: functional, cell-based; conditions: dose 62.5-500 nM
[30] = Cmax in Sprague-Dawley rat at 10 mg/kg, po measured upto 24 hrs by LC-MS/MS analysis; assay type: ADME, organism-based; conditions: in vivo
[31] = AUC(0 to t) in Sprague-Dawley rat at 10 mg/kg, po measured upto 24 hrs by LC-MS/MS analysis; assay type: ADME, organism-based; conditions: in vivo
[32] = Clearance in Sprague-Dawley rat at 10 mg/kg, po measured upto 24 hrs by LC-MS/MS analysis; assay type: ADME, organism-based; conditions: in vivo

Cyclin-dependent kinase 1 (Homo sapiens), sequence (P06493 whole entry, looked up): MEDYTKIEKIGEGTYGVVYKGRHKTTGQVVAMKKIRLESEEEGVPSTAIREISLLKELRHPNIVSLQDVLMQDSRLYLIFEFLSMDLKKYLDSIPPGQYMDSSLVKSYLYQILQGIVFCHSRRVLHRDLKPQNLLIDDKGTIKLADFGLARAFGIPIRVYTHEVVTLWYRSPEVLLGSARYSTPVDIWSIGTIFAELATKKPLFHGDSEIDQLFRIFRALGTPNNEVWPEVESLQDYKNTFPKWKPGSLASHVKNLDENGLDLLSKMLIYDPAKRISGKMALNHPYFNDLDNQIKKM
Membrane-associated tyrosine- and threonine-specific cdc2-inhibitory kinase, sequence (Q99640 whole entry, the tested form may be a part): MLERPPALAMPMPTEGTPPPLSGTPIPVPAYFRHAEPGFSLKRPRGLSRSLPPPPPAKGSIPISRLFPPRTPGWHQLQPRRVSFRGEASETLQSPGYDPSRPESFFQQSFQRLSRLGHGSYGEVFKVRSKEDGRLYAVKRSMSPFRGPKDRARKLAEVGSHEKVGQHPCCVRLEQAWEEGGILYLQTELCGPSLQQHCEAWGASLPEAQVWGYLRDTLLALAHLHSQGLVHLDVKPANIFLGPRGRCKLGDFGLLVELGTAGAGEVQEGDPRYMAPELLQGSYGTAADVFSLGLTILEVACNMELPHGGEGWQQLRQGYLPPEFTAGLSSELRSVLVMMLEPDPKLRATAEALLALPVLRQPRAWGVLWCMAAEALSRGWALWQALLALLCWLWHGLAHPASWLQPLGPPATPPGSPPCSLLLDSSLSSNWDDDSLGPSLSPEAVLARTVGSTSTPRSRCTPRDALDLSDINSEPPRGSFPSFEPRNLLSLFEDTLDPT
Tyrosine-protein kinase ABL2, sequence (P42684 whole entry): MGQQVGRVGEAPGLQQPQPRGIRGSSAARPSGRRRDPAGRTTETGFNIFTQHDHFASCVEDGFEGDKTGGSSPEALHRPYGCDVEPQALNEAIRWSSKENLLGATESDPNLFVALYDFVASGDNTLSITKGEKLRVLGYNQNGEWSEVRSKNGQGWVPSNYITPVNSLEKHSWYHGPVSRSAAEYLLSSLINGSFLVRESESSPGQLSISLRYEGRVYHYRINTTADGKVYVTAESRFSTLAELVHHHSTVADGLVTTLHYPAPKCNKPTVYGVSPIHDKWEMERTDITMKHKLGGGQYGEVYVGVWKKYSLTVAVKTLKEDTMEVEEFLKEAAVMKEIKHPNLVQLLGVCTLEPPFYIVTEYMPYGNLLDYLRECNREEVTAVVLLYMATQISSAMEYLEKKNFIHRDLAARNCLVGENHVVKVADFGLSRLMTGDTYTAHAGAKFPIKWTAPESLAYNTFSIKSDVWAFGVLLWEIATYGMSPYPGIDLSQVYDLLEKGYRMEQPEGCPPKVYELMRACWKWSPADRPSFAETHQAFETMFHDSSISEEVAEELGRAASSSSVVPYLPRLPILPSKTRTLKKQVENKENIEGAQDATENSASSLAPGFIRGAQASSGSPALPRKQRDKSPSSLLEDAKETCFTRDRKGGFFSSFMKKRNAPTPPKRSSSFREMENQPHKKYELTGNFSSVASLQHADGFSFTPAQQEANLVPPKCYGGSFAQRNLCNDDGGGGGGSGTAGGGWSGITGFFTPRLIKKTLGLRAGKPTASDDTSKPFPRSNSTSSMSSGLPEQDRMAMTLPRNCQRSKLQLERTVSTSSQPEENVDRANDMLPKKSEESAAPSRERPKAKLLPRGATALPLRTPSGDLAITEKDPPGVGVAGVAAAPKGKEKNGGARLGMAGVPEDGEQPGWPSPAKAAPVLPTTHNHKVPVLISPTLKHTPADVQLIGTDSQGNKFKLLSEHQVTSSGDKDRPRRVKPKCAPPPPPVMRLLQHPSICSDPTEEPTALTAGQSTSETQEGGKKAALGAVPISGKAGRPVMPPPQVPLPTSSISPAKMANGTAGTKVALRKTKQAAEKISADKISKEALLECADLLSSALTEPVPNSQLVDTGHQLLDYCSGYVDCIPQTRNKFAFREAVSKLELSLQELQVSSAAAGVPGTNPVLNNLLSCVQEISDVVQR
Ephrin type-B receptor 2, sequence (P29323 whole entry): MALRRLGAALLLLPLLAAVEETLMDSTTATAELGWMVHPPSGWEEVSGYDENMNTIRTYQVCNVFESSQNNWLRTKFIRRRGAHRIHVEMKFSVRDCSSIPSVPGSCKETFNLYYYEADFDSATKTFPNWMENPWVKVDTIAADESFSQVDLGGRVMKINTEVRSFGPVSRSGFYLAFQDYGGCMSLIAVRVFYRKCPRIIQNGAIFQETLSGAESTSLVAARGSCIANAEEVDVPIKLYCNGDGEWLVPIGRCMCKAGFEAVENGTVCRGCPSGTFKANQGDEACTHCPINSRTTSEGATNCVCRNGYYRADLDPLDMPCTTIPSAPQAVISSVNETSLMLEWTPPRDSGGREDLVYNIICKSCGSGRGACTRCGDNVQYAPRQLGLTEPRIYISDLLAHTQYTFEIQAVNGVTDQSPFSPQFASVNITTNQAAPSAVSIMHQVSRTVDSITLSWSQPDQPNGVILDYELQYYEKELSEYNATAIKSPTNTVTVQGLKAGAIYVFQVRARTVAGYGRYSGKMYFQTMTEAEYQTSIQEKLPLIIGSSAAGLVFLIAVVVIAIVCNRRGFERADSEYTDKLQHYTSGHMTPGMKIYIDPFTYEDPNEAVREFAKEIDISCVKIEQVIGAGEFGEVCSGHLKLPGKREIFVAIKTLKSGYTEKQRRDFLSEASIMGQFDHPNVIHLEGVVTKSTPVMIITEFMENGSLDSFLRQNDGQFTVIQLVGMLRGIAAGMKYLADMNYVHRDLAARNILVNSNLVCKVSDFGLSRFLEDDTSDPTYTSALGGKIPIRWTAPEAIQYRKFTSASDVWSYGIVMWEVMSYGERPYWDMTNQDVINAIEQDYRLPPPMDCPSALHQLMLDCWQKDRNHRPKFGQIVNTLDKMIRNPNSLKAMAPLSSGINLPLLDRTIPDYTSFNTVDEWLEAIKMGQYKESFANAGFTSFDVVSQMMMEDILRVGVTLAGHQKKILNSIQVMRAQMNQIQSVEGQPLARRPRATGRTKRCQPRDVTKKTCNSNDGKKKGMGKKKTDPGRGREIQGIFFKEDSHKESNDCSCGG
Wee1-like protein kinase, sequence (P30291 whole entry): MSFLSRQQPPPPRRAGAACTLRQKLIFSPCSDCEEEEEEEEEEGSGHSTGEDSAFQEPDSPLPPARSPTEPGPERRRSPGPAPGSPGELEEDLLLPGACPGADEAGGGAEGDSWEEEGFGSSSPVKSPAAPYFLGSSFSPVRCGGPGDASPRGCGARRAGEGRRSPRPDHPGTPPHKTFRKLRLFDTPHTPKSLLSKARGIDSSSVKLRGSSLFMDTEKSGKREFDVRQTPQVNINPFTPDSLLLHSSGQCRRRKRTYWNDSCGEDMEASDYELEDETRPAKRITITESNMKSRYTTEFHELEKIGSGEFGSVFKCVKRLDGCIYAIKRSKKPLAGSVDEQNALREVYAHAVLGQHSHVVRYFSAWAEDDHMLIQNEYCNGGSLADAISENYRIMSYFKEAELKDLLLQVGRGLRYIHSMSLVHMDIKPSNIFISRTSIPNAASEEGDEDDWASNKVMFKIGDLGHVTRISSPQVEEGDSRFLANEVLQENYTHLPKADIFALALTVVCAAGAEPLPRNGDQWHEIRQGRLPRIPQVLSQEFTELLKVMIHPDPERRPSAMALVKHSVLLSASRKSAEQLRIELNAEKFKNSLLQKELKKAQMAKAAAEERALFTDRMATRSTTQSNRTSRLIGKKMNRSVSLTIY
Protein-tyrosine kinase 6, sequence (Q13882 whole entry): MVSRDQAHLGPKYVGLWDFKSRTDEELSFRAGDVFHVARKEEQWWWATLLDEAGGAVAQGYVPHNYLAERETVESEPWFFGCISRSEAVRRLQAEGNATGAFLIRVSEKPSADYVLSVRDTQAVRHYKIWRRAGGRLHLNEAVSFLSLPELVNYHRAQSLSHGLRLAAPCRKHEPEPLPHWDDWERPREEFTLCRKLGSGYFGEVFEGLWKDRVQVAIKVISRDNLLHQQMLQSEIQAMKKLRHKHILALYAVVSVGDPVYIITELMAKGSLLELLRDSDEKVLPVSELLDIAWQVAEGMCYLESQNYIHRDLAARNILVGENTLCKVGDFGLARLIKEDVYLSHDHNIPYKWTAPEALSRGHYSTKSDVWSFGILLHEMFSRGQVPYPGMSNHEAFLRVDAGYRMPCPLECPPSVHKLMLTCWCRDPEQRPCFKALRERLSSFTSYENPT
Tyrosine-protein kinase Lck, sequence (P06239 whole entry): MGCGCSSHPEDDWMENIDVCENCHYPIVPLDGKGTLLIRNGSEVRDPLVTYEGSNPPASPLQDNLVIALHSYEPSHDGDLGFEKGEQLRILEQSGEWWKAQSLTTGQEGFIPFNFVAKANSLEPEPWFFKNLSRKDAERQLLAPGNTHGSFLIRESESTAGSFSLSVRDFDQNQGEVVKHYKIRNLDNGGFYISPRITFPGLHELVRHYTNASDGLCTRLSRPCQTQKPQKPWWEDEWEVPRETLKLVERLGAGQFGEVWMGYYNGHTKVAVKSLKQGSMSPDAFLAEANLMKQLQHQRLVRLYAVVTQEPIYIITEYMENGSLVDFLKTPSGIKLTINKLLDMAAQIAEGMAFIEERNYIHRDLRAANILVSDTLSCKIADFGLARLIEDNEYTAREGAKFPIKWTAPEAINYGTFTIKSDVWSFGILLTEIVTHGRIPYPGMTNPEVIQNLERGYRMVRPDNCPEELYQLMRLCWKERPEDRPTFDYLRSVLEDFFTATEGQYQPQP

pIC50 [1]: 6.33
SMILES: CN[C@@H]1CCN(c2cc(-c3cc(C(N)=O)c(N)c(-c4c(C)ccc(O)c4C)c3)ccn2)C1
pIC50 [2]: 5.25

pIC50 [1]: 5.02
SMILES: Cc1ccc(O)c(C)c1-c1cc(-c2ccnc(OCCCN)c2)cc(C(N)=O)c1N
pIC50 [2]: 4.81

pIC50 [1]: 6.54
SMILES: Cc1ccc(O)c(C)c1-c1cc(-c2ccnc(N3CCCNCC3)c2)cc(C(N)=O)c1N
pIC50 [2]: 5.32

pIC50 [1]: 5.86
SMILES: Cc1ccc(O)c(C)c1-c1cc(-c2ccnc(N3CCNCC3)c2)cc(C(N)=O)c1N
pIC50 [2]: < 4.70

pIC50 [1]: 6.10
SMILES: Cc1ccc(O)c(C)c1-c1cc(-c2cc(OC(F)F)nc(N3CC[C@@H](N)C3)c2)cc(C(N)=O)c1N
pIC50 [2]: 5.38

pIC50 [1]: 5.42
SMILES: Cc1ccc(O)c(C)c1-c1cc(-c2ccnc(OC3CCNCC3)c2)cc(C(N)=O)c1N
pIC50 [2]: < 4.70

pIC50 [1]: 5.78
SMILES: Cc1ccc(O)c(C)c1-c1cc(-c2ccnc(N3CC[C@H](N)C3)c2)cc(C(N)=O)c1N
pIC50 [2]: < 4.70

pIC50 [1]: 5.66
SMILES: Cc1ccc(O)c(C)c1-c1cc(-c2ccnc(OC[C@H]3CCNC3)c2)cc(C(N)=O)c1N
pIC50 [2]: 5.07

pIC50 [1]: 5.74
SMILES: Cc1ccc(O)c(C)c1-c1cc(-c2ccnc(N3CCOCC3)c2)cc(C(N)=O)c1N
pIC50 [2]: < 4.70

pIC50 [1]: 6.54
SMILES: Cc1ccc(O)c(C)c1-c1cc(-c2ccnc(N3CC[C@@H](N)C3)c2)cc(C(N)=O)c1N
pIC50 [2]: 5.07

pIC50 [1]: 5.93
SMILES: Cc1ccc(O)c(C)c1-c1cc(-c2ccnc(OC[C@@H]3CCCN3)c2)cc(C(N)=O)c1N
pIC50 [2]: 5.15

pIC50 [1]: 6.60 | pIC50 [3]: 7.78 | pIC50 [5]: 6.57 | pIC50 [6]: 7.96 | pIC50 [7]: 7.22 | pIC50 [8]: 8.10 | pIC50 [9]: 8.00 | pIC50 [10]: 7.97 | pIC50 [11]: 6.96 | pIC50 [12]: 7.57 | pIC50 [13]: 7.38 | pIC50 [14]: 6.87 | pIC50 [15]: 8.03 | pIC50 [16]: 7.31 | pIC50 [17]: 7.84 | pIC50 [18]: 7.74 | pIC50 [19]: < 6.00 | inhibition [20]: Dose-Dependent Effect | inhibition [21]: 100% | inhibition [22]: inactive | inhibition [23]: inactive | pEC50 [24]: 6.93 | pEC50 [25]: < 5.30 | Cmax [30]: 6.17 ng/mL | AUCt [31]: 6.51 ng·h/mL | CL [32]: 92.17 mL/min/kg
SMILES: Cc1ccc(O)c(C)c1-c1cc(-c2cc(F)nc(N3CC[C@@H](N)C3)c2)cc(C(N)=O)c1N
pIC50 [2]: 5.30 | pIC50 [4]: 5.09 | Activity [26]: Dose-Dependent Effect | Activity [27]: Tde | Activity [28]: Active | Activity [29]: Active

pIC50 [1]: 5.78
SMILES: Cc1ccc(O)c(C)c1-c1cc(-c2ccnc(OCCN)c2)cc(C(N)=O)c1N
pIC50 [2]: 5.36

pIC50 [1]: 5.60
SMILES: CNCCCOc1cc(-c2cc(C(N)=O)c(N)c(-c3c(C)ccc(O)c3C)c2)ccn1
pIC50 [2]: < 4.70

pIC50 [1]: 5.11
SMILES: Cc1ccc(O)c(C)c1-c1cc(-c2ccnc(N3C[C@@H]4C[C@H]3CN4)c2)cc(C(N)=O)c1N
pIC50 [2]: < 4.70

pIC50 [1]: 6.11 | pIC50 [3]: 7.00
SMILES: Cc1ccc(O)c(C)c1-c1cc(-c2ccncc2)cc(C(N)=O)c1N
pIC50 [2]: 4.94

pIC50 [1]: < 4.70
SMILES: Cc1ccc(O)c(C)c1-c1cc(-c2ccnc(N3C4CNCC3C4)c2)cc(C(N)=O)c1N
pIC50 [2]: < 4.70
